Experimental data reported in US20250009877A1, “TREATMENT FOR CANCER” (Seagen Inc., priority 2021, published 2025).

Experiments:
interleukin-10 (IL-10) = assay: Induction of immune-dampening cytokines; conditions: unlike fully agonistic antibodies such as antibody 24.4.1
murine CD40 = murine CD40 (Mus musculus, UniProt P27512); assay: Recognition of murine CD40; format: binding
FcγIII receptors = conditions: compared to the fucosylated parent antibody dacetuzumab; cited from earlier work
CD40 signaling pathway = conditions: compared to the parent antibody dacetuzumab; cited from earlier work

Sequence of murine CD40 (P27512 20-289): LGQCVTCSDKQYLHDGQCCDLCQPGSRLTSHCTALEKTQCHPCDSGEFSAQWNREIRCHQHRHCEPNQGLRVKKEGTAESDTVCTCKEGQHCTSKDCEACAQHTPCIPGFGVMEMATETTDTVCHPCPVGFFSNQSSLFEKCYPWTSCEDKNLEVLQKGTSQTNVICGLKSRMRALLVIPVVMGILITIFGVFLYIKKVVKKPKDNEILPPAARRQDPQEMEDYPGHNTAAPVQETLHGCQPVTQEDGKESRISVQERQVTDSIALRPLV

For “SEA-CD40: non-fucosylated humanized S2C6 anti-CD40 antibody; heavy chain SEQ ID NO: 1, light chain SEQ ID NO: 2; parent antibody dacetuzumab”, the “production of immune-dampening cytokines such as interleukin-10 (IL-10)” value (interleukin-10 (IL-10)) is given as “does not induce production”, the “recognition of murine CD40” value (murine CD40) is given as “does not recognize” and the “binding to FcγIII receptors” value (FcγIII receptors) is given as “enhanced binding”. For the same substance, the “ability to activate the CD40 signaling pathway in immune cells” value (CD40 signaling pathway) was “enhanced ability to activate”.
